EC50 and IC50 data for eleven molecules are collected here from US9072734B2, “Quaternary ammonium salt compounds” (Teijin Pharma Limited, priority 2009, dated 2015).

The term EC50 denotes the concentration giving half of the maximal effect. Read a high EC50 as lower potency in that assay. By IC50 is commonly meant the concentration that inhibits the measured activity by half.

Where a name gives a salt, the structure may show the parent alone.

The target of assay [1] is T1, human β2 adrenergic receptor (Homo sapiens, UniProt P07550).
T1 construct: expressed in transfected cells; host or cells: CHO-K1
The experiment in a line: Whole-cell cAMP Flashplate assay using CHO-K1 cells stably expressing human β2 adrenergic receptor. The assay is classed as cell-based. The following applies: cAMP production. (cAMP levels reflect the balance of adenylyl cyclase and phosphodiesterase activity.)

Assay [2] deals with T2, human M3 muscarinic receptor (Homo sapiens, UniProt P20309).
T2 construct: expressed in transfected cells; host or cells: CHO-K1
Kind of assay: Inhibitory effect on methacholine-induced calcium influx, FLIPR assay, CHO-K1 cells stably expressing the human M3 muscarinic receptor. The class given is cell-based. The following applies: inhibition of calcium influx induced by methacholine. The essentials:
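Dye-loaded hM3 CHO-K1 cells were preincubated 180 s with compound solutions prepared at 10 two-fold concentrations (0.01–1000 nM). A 30 nM methacholine solution was then added. Fluorescence was traced for 170 s; max−min signal gave % inhibition against agonist and no-agonist controls, and IC50 came from a four-parameter logistic fit.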

T1 sequence (P07550 whole entry): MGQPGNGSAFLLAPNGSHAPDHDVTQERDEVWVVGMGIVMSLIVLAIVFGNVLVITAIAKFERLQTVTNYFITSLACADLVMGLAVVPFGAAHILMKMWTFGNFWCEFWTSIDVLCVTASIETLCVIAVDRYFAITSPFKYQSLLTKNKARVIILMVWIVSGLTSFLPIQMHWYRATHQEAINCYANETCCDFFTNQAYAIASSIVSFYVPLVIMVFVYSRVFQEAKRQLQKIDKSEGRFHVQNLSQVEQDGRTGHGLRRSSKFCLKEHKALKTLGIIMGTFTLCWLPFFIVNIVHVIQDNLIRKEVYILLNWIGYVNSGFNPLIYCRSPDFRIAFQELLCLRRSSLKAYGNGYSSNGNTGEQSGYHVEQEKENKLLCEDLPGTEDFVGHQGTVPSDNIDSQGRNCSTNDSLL
T2 sequence (P20309 whole entry): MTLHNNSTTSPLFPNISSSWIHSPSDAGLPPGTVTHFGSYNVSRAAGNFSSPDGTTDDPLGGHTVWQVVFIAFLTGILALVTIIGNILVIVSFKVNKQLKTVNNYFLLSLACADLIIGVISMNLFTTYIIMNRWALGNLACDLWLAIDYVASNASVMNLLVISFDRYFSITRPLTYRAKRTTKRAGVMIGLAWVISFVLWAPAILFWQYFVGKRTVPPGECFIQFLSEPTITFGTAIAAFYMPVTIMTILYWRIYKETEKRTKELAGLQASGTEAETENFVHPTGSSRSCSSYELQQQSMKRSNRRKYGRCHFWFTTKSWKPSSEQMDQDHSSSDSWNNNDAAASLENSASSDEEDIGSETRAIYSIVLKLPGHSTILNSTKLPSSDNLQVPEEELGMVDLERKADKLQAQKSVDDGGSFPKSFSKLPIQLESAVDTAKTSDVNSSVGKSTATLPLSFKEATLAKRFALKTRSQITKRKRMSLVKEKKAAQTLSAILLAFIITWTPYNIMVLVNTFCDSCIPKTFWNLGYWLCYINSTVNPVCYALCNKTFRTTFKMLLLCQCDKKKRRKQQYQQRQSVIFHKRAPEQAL

`C[N+]1(C)CCC(OC(=O)Nc2cc(CCC(=O)Nc3cc(F)c(CNC[C@H](O)c4ccc(O)c5[nH]c(=O)ccc45)cc3F)ccc2-c2ccccc2)CC1` [Example 5, 4-({[5-(2-{[2,5-difluoro-4-({[(2R)-2-hydroxy-2-(8-hydroxy-2-oxo-1,2-dihydroquinolin-5-yl)ethyl]amino}methyl)phenyl]carbamoyl}ethyl)-2-phenylphenyl]carbamoyl}oxy)-1,1-dimethylpiperidin-1-ium trifluoroacetate] came in with an EC50 in assay [1] of 8.2 nM. In assay [2], the IC50 amounted to 19.2 nM.
`C[N+]1(C)[C@@H]2C[C@@H](OC(=O)Nc3ccc(CCCC(=O)Nc4ccc5cc(CNC[C@H](O)c6ccc(O)c7[nH]c(=O)ccc67)ccc5c4)cc3-c3ccccc3)C[C@H]1[C@@H]1O[C@@H]12` [Example 56, (1R,2R,4S,5S,7S)-7-({[4-(3-{[6-({[(2R)-2-hydroxy-2-(8-hydroxy-2-oxo-1,2-dihydroquinolin-5-yl)ethyl]amino}methyl)naphthalen-2-yl]carbamoyl}propyl)-2-phenylphenyl]carbamoyl}oxy)-9,9-dimethyl-3-oxa-9-azatricyclo[3.3.1.0^2,4]nonan-9-ium trifluoroacetate]: in assay [1], the EC50 amounted to 0.9 nM. The IC50 in assay [2] was 64.1 nM.
For `C[N+]1(C)[C@@H]2C[C@@H](OC(=O)Nc3ccc(CCCC(=O)Nc4ccc(CNC[C@H](O)c5ccc(O)c6[nH]c(=O)ccc56)cc4Cl)cc3-c3ccccc3)C[C@H]1[C@@H]1O[C@@H]12` [Example 71, (1R,2R,4S,5S,7S)-7-({[4-(3-{[2-chloro-4-({[(2R)-2-hydroxy-2-(8-hydroxy-2-oxo-1,2-dihydroquinolin-5-yl)ethyl]amino}methyl)phenyl]carbamoyl}propyl)-2-phenylphenyl]carbamoyl}oxy)-9,9-dimethyl-3-oxa-9-azatricyclo[3.3.1.0^2,4]nonan-9-ium trifluoroacetate], in that order: 0.2 nM and 38.9 nM.
For `Cc1cc(CNC[C@H](O)c2ccc(O)c3[nH]c(=O)ccc23)ccc1NC(=O)CCc1ccc(-c2ccccc2)c(NC(=O)OC2C[C@@H]3[C@H]4O[C@H]4[C@H](C2)[N+]3(C)C)c1` (stereo partly drawn) [Example 43, (1R,2R,4S,5S,7S)-7-({[5-(2-{[4-({[(2R)-2-hydroxy-2-(8-hydroxy-2-oxo-1,2-dihydroquinolin-5-yl)ethyl]amino}methyl)-2-methylphenyl]carbamoyl}ethyl)-2-phenylphenyl]carbamoyl}oxy)-9,9-dimethyl-3-oxa-9-azatricyclo[3.3.1.0^2,4]nonan-9-ium trifluoroacetate], in that order: 3 nM and 8.5 nM.
The molecule `C[N+]1(C)CCC(OC(=O)Nc2cc(CCCC(=O)Nc3ccc(CNC[C@H](O)c4ccc(O)c5[nH]c(=O)ccc45)cn3)ccc2-c2ccccc2)CC1` [Example 24, 4-({[5-(3-{[5-({[(2R)-2-hydroxy-2-(8-hydroxy-2-oxo-1,2-dihydroquinolin-5-yl)ethyl]amino}methyl)pyridin-2-yl]carbamoyl}propyl)-2-phenylphenyl]carbamoyl}oxy)-1,1-dimethylpiperidin-1-ium trifluoroacetate] came in with an EC50 in assay [1] of 6.6 nM. Also, the IC50 in assay [2] came out at 11.7 nM.
As for `C[N+]1(C)[C@@H]2CC(OC(=O)Nc3cc(CCC(=O)Nc4ccc(CNC[C@H](O)c5ccc(O)c6[nH]c(=O)ccc56)c(Cl)c4)ccc3-c3ccccc3)C[C@H]1[C@@H]1O[C@@H]12` (stereo partly drawn) [Example 45, (1R,2R,4S,5S,7S)-7-({[5-(2-{[3-chloro-4-({[(2R)-2-hydroxy-2-(8-hydroxy-2-oxo-1,2-dihydroquinolin-5-yl)ethyl]amino}methyl)phenyl]carbamoyl}ethyl)-2-phenylphenyl]carbamoyl}oxy)-9,9-dimethyl-3-oxa-9-azatricyclo[3.3.1.0^2,4]nonan-9-ium trifluoroacetate], in assay [1], the EC50 came to 4.1 nM. Besides, the IC50 in assay [2] came out at 26.5 nM.
`CCOc1cc(NC(=O)CCCc2ccc(-c3ccccc3)c(NC(=O)OC3CC[N+](C)(C)CC3)c2)ccc1CNC[C@H](O)c1ccc(O)c2[nH]c(=O)ccc12` [Example 27, 4-({[5-(3-{[5-ethoxy-4-({[(2R)-2-hydroxy-2-(8-hydroxy-2-oxo-1,2-dihydroquinolin-5-yl)ethyl]amino}methyl)phenyl]carbamoyl}propyl)-2-phenylphenyl]carbamoyl}oxy)-1,1-dimethylpiperidin-1-ium trifluoroacetate] gave an EC50 in assay [1] of 1.5 nM. Moreover, the IC50 in assay [2] is 16.1 nM.
The molecule `C[N+]1(C)[C@@H]2CC(OC(=O)Nc3ccc(CCCC(=O)Nc4ccc(CNC[C@H](O)c5ccc(O)c6[nH]c(=O)ccc56)cc4)cc3-c3ccccc3)C[C@H]1[C@@H]1O[C@@H]12` (stereo partly drawn) [Example 53, (1R,2R,4S,5S,7S)-7-({[4-(3-{[4-({[(2R)-2-hydroxy-2-(8-hydroxy-2-oxo-1,2-dihydroquinolin-5-yl)ethyl]amino}methyl)phenyl]carbamoyl}propyl)-2-phenylphenyl]carbamoyl}oxy)-9,9-dimethyl-3-oxa-9-azatricyclo[3.3.1.0^2,4]nonan-9-ium trifluoroacetate] came in with an EC50 in assay [1] of 0.6 nM. In assay [2], the half-inhibitory concentration (IC50) is 53.7 nM.
For `C[N+]1(C)[C@@H]2C[C@@H](OC(=O)Nc3ccc(CCCC(=O)Nc4ccc(CNC[C@H](O)c5ccc(O)c6[nH]c(=O)ccc56)cc4Br)cc3-c3ccccc3)C[C@H]1[C@@H]1O[C@@H]12` [Example 72, (1R,2R,4S,5S,7S)-7-({[4-(3-{[2-bromo-4-({[(2R)-2-hydroxy-2-(8-hydroxy-2-oxo-1,2-dihydroquinolin-5-yl)ethyl]amino}methyl)phenyl]carbamoyl}propyl)-2-phenylphenyl]carbamoyl}oxy)-9,9-dimethyl-3-oxa-9-azatricyclo[3.3.1.0^2,4]nonan-9-ium trifluoroacetate], in that order: 0.3 nM and 49 nM.
As for `Cc1cc(CNC[C@H](O)c2ccc(O)c3[nH]c(=O)ccc23)ccc1NC(=O)CCCc1ccc(-c2ccccc2)c(NC(=O)O[C@@H]2C[C@@H]3[C@H]4O[C@H]4[C@H](C2)[N+]3(C)C)c1` [Example 39, (1R,2R,4S,5S,7S)-7-({[5-(3-{[4-({[(2R)-2-hydroxy-2-(8-hydroxy-2-oxo-1,2-dihydroquinolin-5-yl)ethyl]amino}methyl)-2-methylphenyl]carbamoyl}propyl)-2-phenylphenyl]carbamoyl}oxy)-9,9-dimethyl-3-oxa-9-azatricyclo[3.3.1.0^2,4]nonan-9-ium trifluoroacetate], the response in assay [1] was half-maximal at 4 nM (EC50). Besides, the IC50 in assay [2] came to 16 nM.
For `COc1cc(NC(=O)CCCc2ccc(-c3ccccc3)c(NC(=O)O[C@@H]3C[C@@H]4[C@H]5O[C@H]5[C@H](C3)[N+]4(C)C)c2)c(Cl)cc1CNC[C@H](O)c1ccc(O)c2[nH]c(=O)ccc12` [Example 34, (1R,2R,4S,5S,7S)-7-({[5-(3-{[2-chloro-4-({[(2R)-2-hydroxy-2-(8-hydroxy-2-oxo-1,2-dihydroquinolin-5-yl)ethyl]amino}methyl)-5-methoxyphenyl]carbamoyl}propyl)-2-phenylphenyl]carbamoyl}oxy)-9,9-dimethyl-3-oxa-9-azatricyclo[3.3.1.0^2,4]nonan-9-ium trifluoroacetate], in that order: 1.2 nM and 22 nM.
